Experiments:
[1] = target: μ-opioid receptors in the guinea pig ileum (Cavia porcellus, UniProt A0ACM8Q262); assay: Guinea pig ileum bioassay, test for agonist activity (inhibition of electrically evoked twitch contractions); conditions: mean, n=2; for Response to the compound (decrease in twitch contraction amplitude): percent of control response to DAMGO 1.0E−07 M
Protocol: Experimental Conditions. Segments of guinea pig terminal ileum were suspended in 20-ml organ baths filled with an oxygenated (95% O2 and 5% CO2) and pre-warmed (37° C.) physiological salt solution of the following composition (in mM): NaCl 118.0, KCl 4.7, MgSO4 1.2, CaCl2 2.5, KH2PO4 1.2, NaHCO3 25.0 and glucose 11.0 (pH 7.4). Additional experimental conditions were as described in Hutchinson et al. (1975) Brit. J. Pharmacol., 55: 541-546.
Indomethacin (1 μM), nor-binaltorphimine (0.01 μM), methysergide (1 μM), ondansetron (10 μM) and GR113808 (0.1 μM) were also present throughout the experiments to prevent prostanoid release and to block the k-opioid, 5-HT2, 5-HT3 and 5-HT4 receptors, respectively. The tissues were connected to force transducers for isometric tension recordings. They were stretched to a resting tension of 1 g then allowed to equilibrate for 60 min during which time they were washed repeatedly and the tension readjusted. Thereafter, they were stimulated electrically with pulses of minimal intensity to trigger maximal contractions and 1 ms duration, delivered at 0.1 Hz by a constant current stimulator.
Test for agonist activity. […] The different concentrations were added cumulatively and each was left in contact with the tissues until a stable response was obtained or for a maximum of 15 min.
Analysis and Expression of Results. The parameter measured was the maximum change in the amplitude of the electrically-evoked twitch contractions induced by each compound concentration.

[2] = target: T1, human μ (mu, MOP) receptor (Homo sapiens, UniProt P35372); assay: cAMP assay in CHO cells expressing human mu receptor, agonist assay; type: cell-based
T1 construct: expressed in transfected cells; host or cells: CHO cells

[3] = tested on: gastrointestinal transit in rats; assay: Gastrointestinal transit (charcoal motility) in rats, alone or before morphine; type: in vivo, rat; conditions: for Mean Motility: ratio of length of charcoal transit/total intestine length, * p<0.05 vs vehicle
Protocol: F. et al J. Pharmacol. Exptl. Therap. 133: 400-408, 1961; D. E. Gmerek, et al J. Pharmacol. Exptl. Ther. 236: 8-13, 1986; and O. Yamamoto et al Neurogastroenterol. Motil. 10: 523-532, 1998.
A control group of rats received 2 mL/kg of a 0.9% saline solution (n=10). After 15 minutes, rats were subcutaneously injected with saline (1 mL/kg) or morphine (3 mg/kg). A 10% suspension of activated charcoal in 0.25% methylcellulose was administered orally at 10 mL/kg to the rats 20 minutes (±2 minutes) after the subcutaneous dose of morphine or saline. The rats were euthanized 25 minutes (±3 minutes) after receiving the charcoal and the intestines were removed and lightly stretched on moist paper along a meterstick. The small intestine from pyloric sphincter to caecum was measured and the distance traveled by the charcoal as a fraction of that length was evaluated for each rat.
Statistically significant effects were determined by ANOVA with Tukey HSD Multiple Comparison Test. Differences with p values <0.05 were considered statistically significant.
Values for charcoal motility were expressed as a percent effect and were calculated in the following manner: The individual distance traveled by the charcoal in centimeters was divided by the total length of the intestines in centimeters (pyloric sphincter to caecum) for each rat. Mean values were calculated for each group, and the percent effect was calculated using the following formula: […]

[4] = 1 mg/kg sc + Morphine 3 mg/kg sc
[5] = 3 mg/kg sc + Morphine 3 mg/kg sc
[6] = 10 mg/kg sc + Morphine 3 mg/kg sc

T1 sequence (P35372 whole entry): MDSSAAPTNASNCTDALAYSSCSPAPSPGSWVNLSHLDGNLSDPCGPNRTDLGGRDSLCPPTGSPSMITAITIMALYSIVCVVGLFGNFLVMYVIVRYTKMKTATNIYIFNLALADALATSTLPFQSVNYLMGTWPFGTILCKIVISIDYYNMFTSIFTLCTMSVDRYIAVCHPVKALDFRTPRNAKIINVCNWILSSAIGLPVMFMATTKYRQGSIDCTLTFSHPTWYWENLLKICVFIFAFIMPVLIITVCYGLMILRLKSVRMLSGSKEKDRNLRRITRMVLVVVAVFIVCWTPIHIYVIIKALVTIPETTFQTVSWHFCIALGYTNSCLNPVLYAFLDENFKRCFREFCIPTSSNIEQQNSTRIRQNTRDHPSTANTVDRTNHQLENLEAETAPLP
Chain of μ-opioid receptors in the guinea pig ileum (A0ACM8Q262 1-400): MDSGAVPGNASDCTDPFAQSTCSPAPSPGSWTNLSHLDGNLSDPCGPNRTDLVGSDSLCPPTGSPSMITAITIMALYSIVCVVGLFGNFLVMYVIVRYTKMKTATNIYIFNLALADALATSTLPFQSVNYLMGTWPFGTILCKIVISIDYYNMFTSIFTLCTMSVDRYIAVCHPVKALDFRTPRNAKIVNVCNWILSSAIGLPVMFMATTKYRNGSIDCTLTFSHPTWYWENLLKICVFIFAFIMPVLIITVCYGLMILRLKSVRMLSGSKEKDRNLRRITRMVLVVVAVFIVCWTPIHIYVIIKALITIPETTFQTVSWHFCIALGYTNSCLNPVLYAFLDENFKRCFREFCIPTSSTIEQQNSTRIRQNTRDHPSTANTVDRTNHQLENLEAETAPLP

C[C@@H](NC(=O)[C@@H](N)Cc1ccc(O)cc1)C(=O)NCC(=O)N(C)[C@@H](Cc1ccccc1)C(=O)NCCO [DAMGO, reference compound]
Response to the compound (decrease in twitch contraction amplitude) ([1]; 1.0E−07 M): 99% | Response to the compound (decrease in twitch contraction amplitude) ([1]; 1.0E−08 M): 49% | Response to the compound (decrease in twitch contraction amplitude) ([1]; 1.0E−09 M): 12% | Response to the compound +naloxone ([1]; compound 1.0E−07 M + naloxone 1.0E−07 M, percent of control response to DAMGO): 3% | cAMP agonist assay value (Table IX.1) ([2]; log{M} conc −4.0): −1 | cAMP agonist assay value (Table IX.1) ([2]; log{M} conc −5.0): 2 | cAMP agonist assay value (Table IX.1) ([2]; log{M} conc −6.0): 1 | cAMP agonist assay value (Table IX.1) ([2]; log{M} conc −7.0): 2 | cAMP agonist assay value (Table IX.1) ([2]; log{M} conc −8.0): 68 | cAMP agonist assay value (Table IX.1) ([2]; log{M} conc −9.0): 63 | cAMP agonist assay value (Table IX.1) ([2]; log{M} conc −10.0): 88 | cAMP agonist assay value (Table IX.1) ([2]; log{M} conc −11.0): 105

CN1CC[C@]23c4c5ccc(O)c4O[C@H]2[C@@H](O)C=C[C@H]3[C@H]1C5 [Morphine, morphine]
Percent Decrease ([3]; Saline + Morphine 3 mg/kg sc): 33% | Mean Motility ([3]; Saline + Morphine 3 mg/kg sc): 0.407* | effect on GI transit when administered alone ([3]; rats, sc): decreased GI motility

C[N+]1(CC2CC2)CC[C@]23c4c5ccc(O)c4O[C@H]2C(=O)CC[C@@]3(O)[C@H]1C5 (stereo partly drawn) [R-MNTX, (R)-N-methylnaltrexone]
Percent Decrease [3, 4]: 24% | Mean Motility [3, 4]: 0.463* | Percent Decrease [3, 5]: 8% | Mean Motility [3, 5]: 0.558 | Percent Decrease [3, 6]: 8% | Mean Motility [3, 6]: 0.557 | Percent Decrease ([3]; 10 mg/kg sc + Saline): 6% | Mean Motility ([3]; 10 mg/kg sc + Saline): 0.572 | effect on GI transit in combination with / prior to morphine ([3]; rats, sc, 15 minutes before morphine 3 mg/kg): reversed the GI slowing effect of morphine | effect on GI transit when administered alone ([3]; rats, sc): no effect on GI transit

— patent US7563899B2, “(S)-N-methylnaltrexone” (Progenics Pharmaceuticals, Inc., priority 2005, dated 2009)
